The record followed here is patent US7906655B2, “Hepatitis C virus inhibitors” (Bristol-Myers Squibb Company, priority 2008, dated 2011).

The first test relates to HCV 1b genotype. The test can be described thus: HCV Replicon assay (HCV-neo replicon cells, wild-type). Format: cell-based. The following applies: Hepatitis C virus, HCV 1b genotype replicon; class symbols. In short, it runs like this:
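Inhibition was measured in HCV-neo (genotype 1b) replicon cells. Some assay versions used luciferase reporters.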
Take `CC(C)(C)OC(=O)C[C@H](NC(=O)OCc1ccccc1)c1nc2cc(CCc3ccc4nc([C@H](CC(=O)OC(C)(C)C)NC(=O)OCc5ccccc5)[nH]c4c3)ccc2[nH]1` [OL9, tert-butyl (3S)-3-(((benzyloxy)carbonyl)amino)-3-(5-(2-(2-((1S)-1-(((benzyloxy)carbonyl)amino)-3-tert-butoxy-3-oxopropyl)-1H-benzimidazol-6-yl)ethyl)-1H-benzimidazol-2-yl)propanoate]: the EC50 (commonly the concentration at which the effect is half-maximal) was in the range of 4.57 to 99 nM.

On to `CC(C)(C)OC(=O)CC[C@H](NC(=O)OCc1ccccc1)c1nc2cc(CCc3ccc4nc([C@H](CCC(=O)OC(C)(C)C)NC(=O)OCc5ccccc5)[nH]c4c3)ccc2[nH]1` [OL10, tert-butyl (4S)-4-(((benzyloxy)carbonyl)amino)-4-(5-(2-(2-((1S)-1-(((benzyloxy)carbonyl)amino)-4-tert-butoxy-4-oxobutyl)-1H-benzimidazol-6-yl)ethyl)-1H-benzimidazol-2-yl)butanoate], for which the EC50 fell in the range of 100 to 999 nM.

Take `O=C(C1CC1)N1CCN(C(=O)OCc2ccccc2)C(c2nc3cc(CCc4ccc5nc(C6CN(C(=O)C7CC7)CCN6C(=O)OCc6ccccc6)[nH]c5c4)ccc3[nH]2)C1` (stereo not shown) [OL12, benzyl 2-(5-(2-(2-(1-((benzyloxy)carbonyl)-4-(cyclopropylcarbonyl)-2-piperazinyl)-1H-benzimidazol-6-yl)ethyl)-1H-benzimidazol-2-yl)-4-(cyclopropylcarbonyl)-1-piperazinecarboxylate]: the EC50 lay within 100 to 999 nM.

For the compound `CN(C)C(=O)C[C@H](NC(=O)OCc1ccccc1)c1nc2cc(CCc3ccc4[nH]c([C@H](CC(=O)N(C)C)NC(=O)OCc5ccccc5)nc4c3)ccc2[nH]1` [OL14, benzyl((1S)-1-(5-(2-(2-((1S)-1-(((benzyloxy)carbonyl)amino)-3-(dimethylamino)-3-oxopropyl)-1H-benzimidazol-6-yl)ethyl)-1H-benzimidazol-2-yl)-3-(dimethylamino)-3-oxopropyl)carbamate], the concentration for a half-maximal effect (EC50) lay within 100 to 999 nM.

As to `C[C@H](NC(=O)[C@H]1CCCO1)c1nc2cc(CCc3ccc4[nH]c([C@H](C)NC(=O)[C@H]5CCCO5)nc4c3)ccc2[nH]1` [OL15, (2R,2′R)—N,N′-(1,2-ethanediylbis(1H-benzimidazole-5,2-diyl(1S)-1,1-ethanediyl))ditetrahydro-2-furancarboxamide], the EC50 is 100 to 999 nM.

Still in this test, the particulars now being: Hepatitis C virus, HCV 1b genotype replicon; numeric values.
With `CC(C)(C)OC(=O)N1CCN(C(=O)OCc2ccccc2)C(c2nc3cc(CCc4ccc5nc(C6CN(C(=O)OC(C)(C)C)CCN6C(=O)OCc6ccccc6)[nH]c5c4)ccc3[nH]2)C1` (stereo not shown) [OL8, 1-benzyl 4-tert-butyl 2-(5-(2-(2-(1-((benzyloxy)carbonyl)-4-(tert-butoxycarbonyl)-2-piperazinyl)-1H-benzimidazol-6-yl)ethyl)-1H-benzimidazol-2-yl)-1,4-piperazinedicarboxylate], the EC50 turned out to be 2880 nM.

As for `O=C(c1ccncc1)N1CCN(C(=O)OCc2ccccc2)C(c2nc3cc(CCc4ccc5nc(C6CN(C(=O)c7ccncc7)CCN6C(=O)OCc6ccccc6)[nH]c5c4)ccc3[nH]2)C1` (stereo not shown) [OL13, benzyl 2-(5-(2-(2-(1-((benzyloxy)carbonyl)-4-isonicotinoyl-2-piperazinyl)-1H-benzimidazol-6-yl)ethyl)-1H-benzimidazol-2-yl)-4-isonicotinoyl-1-piperazinecarboxylate], the EC50 was 8560 nM.
